Results on nine molecules are retold here after patent US8604021B2, “Substituted arylamine compounds and methods of treatment” (priority 2005, dated 2013).

A short description of experiment [1]: Novel object recognition test. The conditions noted are these: for effect on recognition index / object recognition compared to vehicle: 0.1 mg/kg i.p. The experiment is classed as in vivo, C57Bl/6J mice. The source says: Male C57Bl/6J mice from Jackson Laboratories (Bar Harbor, Me.) were used. Mice were received at 6-weeks of age. Upon receipt, mice were assigned unique identification numbers (tail marked) and were group housed in polycarbonate cages with filter tops. All animals remained housed in groups of four during the remainder of the study. All mice were acclimated to the colony room for at least two weeks prior to testing and were subsequently tested at an average age of 8 weeks of age. During the period of acclimation, mice were examined on a regular basis, handled, and weighed to assure adequate health and suitability. Mice were maintained on a 12/12 light/dark cycle with the light on at 6:00 a.m. The room temperature was maintained between 20 and 23° C. with a relative humidity maintained between 30% and 70%. Chow and water were provided ad libitum for the duration of the study. In each test, animals were randomly assigned across treatment groups.
The pH at the 10 mg/kg was around 5.5.
Rolipram, also dissolved in 10% DMSO was only administered 20 min prior to training on Day 2.
On Day 1, mice were habituated to a circular open field environment (d=18 in, h=15 cm) for one hour in cage groups of four. Each Arena was constructed out of acrylic that was painted black to block reflection. On day 2, mice were placed back into the same arena for a training trial and allowed to explore a set of two identical objects placed equidistance apart from both each other and the arena walls. Individual mice were trained for a total of 15 minutes and then placed back into their home cages. On Day 3, mice were placed back into the same arena in the presence of both the familiar (previously explored) and a novel object. The spatial positions of the familiar and novel object (i.e. left-right sides) were counterbalanced between subjects. The difference in time spent exploring each object during the test trial was used as an index of object recognition and memory retention. Each animals test trial was recorded and these tapes were observed and scored after test completion. The first 10 min of each session was scored and object recognition was computed using the formula: (Time spent with novel object*100)/(Total Time exploring both objects). Tissue Harvest
Data were analyzed by analysis of variance (ANOVA) followed by post-hoc comparisons with Fisher Tests when appropriate. An effect was considered significant if p<0.05. Data are represented as the mean and standard error to the mean.

For experiment [2], the target named is 5-HT6 receptor (Homo sapiens, UniProt P50406). Description: 5-HT6 receptor binding.
Experiment [3] concerns the target T1, 5HT2C (Homo sapiens, UniProt P28335).
T1 sequence (P28335 33-458): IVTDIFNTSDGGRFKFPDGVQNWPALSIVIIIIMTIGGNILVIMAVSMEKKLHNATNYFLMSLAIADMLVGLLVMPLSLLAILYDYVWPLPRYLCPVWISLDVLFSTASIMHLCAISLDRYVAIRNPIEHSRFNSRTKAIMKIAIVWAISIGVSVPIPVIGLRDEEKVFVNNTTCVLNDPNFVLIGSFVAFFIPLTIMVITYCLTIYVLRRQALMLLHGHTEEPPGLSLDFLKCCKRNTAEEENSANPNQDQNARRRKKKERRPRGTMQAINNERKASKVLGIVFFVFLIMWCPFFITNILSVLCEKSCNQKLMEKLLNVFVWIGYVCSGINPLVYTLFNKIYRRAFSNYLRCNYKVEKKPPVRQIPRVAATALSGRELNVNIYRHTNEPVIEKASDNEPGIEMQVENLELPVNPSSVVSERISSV
Description: Compound Binding Profiles: 5HT2C.

The target of experiment [4] is α1. Description: Compound Binding Profiles: α1.
Experiment [5] addresses H1 (Homo sapiens, UniProt P35367). Description: Compound Binding Profiles: H1. The following applies: * = Estimated IC50.
For experiment [6], the target named is T2, M1 (Homo sapiens, UniProt P11229).
T2 sequence (P11229 1-460): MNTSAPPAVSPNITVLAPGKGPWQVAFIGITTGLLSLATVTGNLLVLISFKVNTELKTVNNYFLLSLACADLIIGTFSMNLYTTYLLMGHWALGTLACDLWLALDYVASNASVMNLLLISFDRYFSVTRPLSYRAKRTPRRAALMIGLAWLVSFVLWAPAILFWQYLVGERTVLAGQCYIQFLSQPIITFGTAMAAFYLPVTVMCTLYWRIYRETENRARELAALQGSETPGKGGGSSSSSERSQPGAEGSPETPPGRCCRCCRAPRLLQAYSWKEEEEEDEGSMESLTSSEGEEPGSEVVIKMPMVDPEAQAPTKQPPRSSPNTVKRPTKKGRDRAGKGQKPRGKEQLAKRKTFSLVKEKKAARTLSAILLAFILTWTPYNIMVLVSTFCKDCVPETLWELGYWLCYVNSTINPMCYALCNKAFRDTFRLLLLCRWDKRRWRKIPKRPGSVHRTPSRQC
Description: Compound Binding Profiles: M1.

The target in experiment [7] is D1 (Homo sapiens, UniProt P21728). Description: Compound Binding Profiles: D1. The conditions noted are these: read-out: D1 binding class.
The target of experiment [8] is 5HT2A (Homo sapiens, UniProt P28223). Description: Compound Binding Profiles: 5HT2A.
The target in experiment [9] is T3, 5HT1A (Homo sapiens, UniProt P08908).
T3 sequence (P08908 1-422): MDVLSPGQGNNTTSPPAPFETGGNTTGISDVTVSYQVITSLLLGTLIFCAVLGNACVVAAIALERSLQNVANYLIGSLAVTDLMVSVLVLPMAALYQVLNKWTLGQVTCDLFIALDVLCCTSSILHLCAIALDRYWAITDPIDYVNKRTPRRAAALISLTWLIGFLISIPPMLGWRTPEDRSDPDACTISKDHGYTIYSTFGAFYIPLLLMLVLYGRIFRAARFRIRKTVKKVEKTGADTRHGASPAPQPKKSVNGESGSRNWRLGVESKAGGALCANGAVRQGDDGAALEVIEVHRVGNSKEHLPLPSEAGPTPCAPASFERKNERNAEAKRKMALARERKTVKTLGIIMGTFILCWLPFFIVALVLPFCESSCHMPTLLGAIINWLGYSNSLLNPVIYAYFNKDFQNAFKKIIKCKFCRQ
Put plainly: Compound Binding Profiles: 5HT1A. The conditions noted are these: read-out: 5HT1A binding class.

The target in experiment [10] is D2 (Homo sapiens, UniProt P14416). Put plainly: Compound Binding Profiles: D2. The conditions noted are these: * = Estimated IC50.
Experiment [11] has as its target α2. Description: Compound Binding Profiles: α2.
The target of experiment [12] is T4, D4 (Homo sapiens, UniProt P21917).
T4 sequence (P21917 1-419): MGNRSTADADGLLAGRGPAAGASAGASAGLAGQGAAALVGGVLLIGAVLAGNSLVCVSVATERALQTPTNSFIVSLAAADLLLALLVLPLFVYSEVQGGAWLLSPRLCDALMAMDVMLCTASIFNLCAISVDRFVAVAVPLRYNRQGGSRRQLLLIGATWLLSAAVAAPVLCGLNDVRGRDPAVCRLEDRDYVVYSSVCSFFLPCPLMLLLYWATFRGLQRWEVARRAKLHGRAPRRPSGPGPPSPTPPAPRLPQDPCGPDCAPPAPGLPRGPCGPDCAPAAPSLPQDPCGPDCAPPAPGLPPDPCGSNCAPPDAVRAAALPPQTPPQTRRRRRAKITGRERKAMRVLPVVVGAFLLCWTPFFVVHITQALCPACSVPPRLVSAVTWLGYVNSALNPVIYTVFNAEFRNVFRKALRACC
Put plainly: Compound Binding Profiles: D4. The conditions noted are these: read-out: D4 binding class.

The target in experiment [13] is D3 (Homo sapiens, UniProt P35462). Description: Compound Binding Profiles: D3.
Experiment [14] can be described thus: Food intake, body weight and plasma biomarkers in DIO (diet-induced obese) rats. Format: in vivo. The following applies: DIO rats, 3, 10 mg/kg bid, two weeks.
The mark [15] stands for this setting: * = Estimated IC50, hydrochloride.

Structures can show the parent of a compound that is named as a salt. Where two headings read alike, the source gives them in different places. Where only a bound is given, the exact number is not on record here.

5-HT6 receptor, sequence (P50406 whole entry): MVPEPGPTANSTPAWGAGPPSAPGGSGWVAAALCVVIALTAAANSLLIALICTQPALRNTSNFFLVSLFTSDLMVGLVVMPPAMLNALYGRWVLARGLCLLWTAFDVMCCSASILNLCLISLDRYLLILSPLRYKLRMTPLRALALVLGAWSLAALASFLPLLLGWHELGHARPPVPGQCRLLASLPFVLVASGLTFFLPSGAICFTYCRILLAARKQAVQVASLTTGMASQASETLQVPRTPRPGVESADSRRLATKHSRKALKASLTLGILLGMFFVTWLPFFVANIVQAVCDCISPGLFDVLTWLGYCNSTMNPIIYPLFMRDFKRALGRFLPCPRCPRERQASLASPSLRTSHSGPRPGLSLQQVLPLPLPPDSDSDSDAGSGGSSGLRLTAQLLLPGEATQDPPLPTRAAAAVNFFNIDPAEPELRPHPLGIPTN
D2, sequence (P14416 whole entry): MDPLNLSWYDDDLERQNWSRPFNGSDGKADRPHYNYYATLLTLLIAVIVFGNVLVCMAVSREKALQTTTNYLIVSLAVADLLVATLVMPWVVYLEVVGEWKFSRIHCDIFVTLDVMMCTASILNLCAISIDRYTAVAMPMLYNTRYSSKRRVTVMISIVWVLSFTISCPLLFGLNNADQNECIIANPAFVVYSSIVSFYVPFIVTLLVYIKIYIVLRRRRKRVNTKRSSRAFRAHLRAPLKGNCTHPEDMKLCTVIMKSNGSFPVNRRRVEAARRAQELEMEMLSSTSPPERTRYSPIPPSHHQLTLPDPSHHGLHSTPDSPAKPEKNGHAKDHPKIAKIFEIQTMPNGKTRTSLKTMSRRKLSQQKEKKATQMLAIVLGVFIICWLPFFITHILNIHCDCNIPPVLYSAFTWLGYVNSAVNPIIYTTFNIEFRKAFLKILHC
5HT2A, sequence (P28223 whole entry, species assumed): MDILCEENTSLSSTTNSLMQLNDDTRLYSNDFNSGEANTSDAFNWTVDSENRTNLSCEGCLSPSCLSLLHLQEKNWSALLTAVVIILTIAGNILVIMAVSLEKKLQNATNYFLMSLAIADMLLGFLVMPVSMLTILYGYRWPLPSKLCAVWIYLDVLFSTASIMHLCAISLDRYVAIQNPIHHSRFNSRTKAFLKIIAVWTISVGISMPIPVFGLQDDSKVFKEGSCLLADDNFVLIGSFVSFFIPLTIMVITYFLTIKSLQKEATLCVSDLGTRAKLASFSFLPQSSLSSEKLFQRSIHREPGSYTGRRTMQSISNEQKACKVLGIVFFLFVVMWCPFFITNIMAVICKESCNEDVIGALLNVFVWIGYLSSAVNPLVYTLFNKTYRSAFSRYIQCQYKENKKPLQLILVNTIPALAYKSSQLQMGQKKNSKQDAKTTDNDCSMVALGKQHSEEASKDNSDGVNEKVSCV
D3, sequence (P35462 whole entry): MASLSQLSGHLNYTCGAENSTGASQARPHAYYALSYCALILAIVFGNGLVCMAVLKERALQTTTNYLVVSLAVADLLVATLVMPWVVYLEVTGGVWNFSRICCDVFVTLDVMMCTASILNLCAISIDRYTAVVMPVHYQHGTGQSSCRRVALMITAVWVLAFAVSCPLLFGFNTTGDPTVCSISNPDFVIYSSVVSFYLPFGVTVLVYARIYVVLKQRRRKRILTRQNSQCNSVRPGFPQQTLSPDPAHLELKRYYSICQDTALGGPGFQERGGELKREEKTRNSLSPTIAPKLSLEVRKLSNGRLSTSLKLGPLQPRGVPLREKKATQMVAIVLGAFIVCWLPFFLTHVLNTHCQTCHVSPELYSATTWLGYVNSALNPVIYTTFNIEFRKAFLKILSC
H1, sequence (P35367 whole entry): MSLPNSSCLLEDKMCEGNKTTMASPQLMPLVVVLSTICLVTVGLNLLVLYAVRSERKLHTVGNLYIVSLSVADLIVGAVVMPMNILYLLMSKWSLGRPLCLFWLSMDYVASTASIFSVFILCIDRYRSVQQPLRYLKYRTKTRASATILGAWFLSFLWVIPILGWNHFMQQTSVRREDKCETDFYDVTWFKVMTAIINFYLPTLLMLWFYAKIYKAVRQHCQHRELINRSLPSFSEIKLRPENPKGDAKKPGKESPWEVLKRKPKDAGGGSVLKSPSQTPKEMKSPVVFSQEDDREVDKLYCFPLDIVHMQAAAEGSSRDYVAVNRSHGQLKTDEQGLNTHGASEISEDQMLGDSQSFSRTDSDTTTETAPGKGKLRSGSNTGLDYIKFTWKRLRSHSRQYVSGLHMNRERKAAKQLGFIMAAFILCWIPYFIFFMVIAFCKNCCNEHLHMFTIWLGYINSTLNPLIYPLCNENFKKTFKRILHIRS
D1, sequence (P21728 whole entry): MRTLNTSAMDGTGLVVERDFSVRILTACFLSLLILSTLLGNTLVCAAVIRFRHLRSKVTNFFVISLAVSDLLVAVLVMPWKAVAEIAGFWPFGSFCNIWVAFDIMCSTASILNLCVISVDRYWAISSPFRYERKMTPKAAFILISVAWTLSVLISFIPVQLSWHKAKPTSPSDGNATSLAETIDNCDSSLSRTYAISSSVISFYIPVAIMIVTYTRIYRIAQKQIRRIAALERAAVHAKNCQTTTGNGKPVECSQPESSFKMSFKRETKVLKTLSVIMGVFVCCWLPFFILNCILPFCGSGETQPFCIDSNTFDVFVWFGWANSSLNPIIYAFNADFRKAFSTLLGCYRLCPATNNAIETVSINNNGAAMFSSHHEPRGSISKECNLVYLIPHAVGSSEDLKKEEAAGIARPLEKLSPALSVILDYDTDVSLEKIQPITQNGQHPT

For the molecule `COc1ccc(C2CNC(=O)C2)cc1OC1CCCC1` (stereo not shown) [Rolipram, reference compound], in [1] (0.1 mg/kg), the “Exploration time, Diff of Means Novel vs. Familiar” value amounted to 29.803. For the same molecule, the “time exploring novel object versus familiar object” value in experiment [1] (0.1 mg/kg) is listed as “spent more time exploring novel object than the familiar object”. Also, the “effect on recognition index / object recognition compared to vehicle” value in [1] is reported as “significant, positive effect on object recognition”; in [1] (listed as rolipram), “significantly increased the recognition index”. Besides, the “Memory index, Mean” value in experiment [1] (0.1 mg/kg, 10 min test) was 71.670. In addition, the “Exploration time, Mean” value in experiment [1] (0.1 mg/kg, Familiar Object) was 19.172; in experiment [1] (0.1 mg/kg, Novel Object), 48.975. The “Exploration time, Diff of Means 10% DMSO vs. treatment” value in experiment [1] (within Familiar, 0.1 mg/kg) is given as 4.807. Further, the “Exploration time, Diff of Means treatment vs. 10% DMSO” value in experiment [1] (within Novel, 0.1 mg/kg) is listed as 17.991.
Turning to `COc1cc(OC)cc(C(C)Nc2cc(N3CCNCC3)ccc2C(=O)C(F)(F)F)c1` (stereo not shown) [Compound C, 1-(2-(1-(3,5-Dimethoxyphenyl)ethylamino)-4-(piperazin-1-yl)phenyl)-2,2,2-trifluoroethanone hydrochloride], the Ki in experiment [2] (read-out: 5-HT6 Ki) was found to be 34 nM.
The same measure, in the same setting: as for `CC(Nc1cc(N2CCNCC2)ccc1S(C)(=O)=O)c1ccccc1` (stereo not shown) [Compound B, 2-(Methylsulfonyl)-N-(1-phenylethyl)-5-(piperazin-1-yl)benzenamine hydrochloride], the figure is 47 nM; as for `COc1cc(Cl)cc(C(C)Nc2cc(N3CCNCC3)ccc2S(C)(=O)=O)c1OC` (single isomer, unassigned; (+)) [(+) isomer, [1-(5-Chloro-2,3-dimethoxy-phenyl)-ethyl]-(2-methanesulfonyl-5-piperazin-1-yl-phenyl)-amine hydrochloride], 18 nM.
Regarding `CC(Nc1cc(N2CCNCC2)ccc1S(C)(=O)=O)c1cc(Cl)cc2c1OCCO2` (stereo not shown) [Cpd. E, N-(1-(6-Chloro-2,3-dihydrobenzo[b][1,4]dioxin-8-yl)ethyl)-2-(methylsulfonyl)-5-(piperazin-1-yl)benzenamine hydrochloride], the Ki is 12 nM in [3]; 100 to 1000 nM in experiment [7]; 150 nM in experiment [8]; 100 to 1000 nM in experiment [9]; 1.3 nM in [2] (binding profile table, read-out: 5HT6 Ki); 100 to 1000 nM in [12]. In addition, the Ki in experiment [13] is 2.8 nM. Moreover, the IC50 in experiment [4] (setting [15]) was 24000 nM; in [5], 20000 nM; in [6] (* = Estimated IC50) it was 10000 nM; in [10], 613 nM; in experiment [11] (setting [15]), 30000 nM.
In the case of `O=C1Cc2cc(CCN3CCN(c4nsc5ccccc45)CC3)c(Cl)cc2N1` [Ziprasidome, reference compound], the Ki in experiment [4] (read-out: α1 binding class) was 100 to 1000 nM; in [6] (read-out: M1 binding class), < 10 nM; in experiment [9] it was < 10 nM; in experiment [11] (read-out: α2 binding class), 100 to 1000 nM; in [2] (read-out: 5HT6 binding class) it was 11 to 100 nM.
As to `COc1cc(Cl)cc(C(C)Nc2cc(N3CCNCC3)ccc2S(C)(=O)=O)c1OC` (single isomer, unassigned; (-)) [(−) isomer, [1-(5-Chloro-2,3-dimethoxy-phenyl)-ethyl]-(2-methanesulfonyl-5-piperazin-1-yl-phenyl)-amine hydrochloride], the Ki in experiment [2] (5-HT6 Ki) came to 4.5 nM.
On to `COc1cc(OC)cc(C(C)Nc2cc(N3CCNCC3)ccc2S(C)(=O)=O)c1.Cl` (stereo not shown) [Compound D, N-(1-(3,5-Dimethoxyphenyl)ethyl-2-(methylsulfonyl)-5-(piperazin-1-yl)-benzeneamine hydrochloride], for which, in [2] (read-out: 5-HT6 Ki), the Ki was determined as 27 nM.
`COc1cc(OC)cc(C(C)Nc2cc(N3CCNCC3)ccc2S(C)(=O)=O)c1.Cl` (stereo not shown) [Compound D]: in experiment [14], the body weight result is given as “significant decrease”, the food intake result was “significant decrease”, the “plasma level of Insulin” value is “reduction” and the “plasma level of Leptin” value is recorded as “reduction”. For the same molecule, in [14], the “plasma level of NEFA” value is “reduction” and the “plasma level of triglycerides” value is given as “reduction”.
